Reference: patent US6706740B2, “Fungicidal heterocyclic aromatic amides and their compositions, methods of use and preparation” (Dow AgroSciences LLC, priority 1999, dated 2004)
Like-named read-outs stand apart in the source and are kept apart here.

Key:
[1] = system: Erysiphe graminis—ERYSGT; experiment: Powdery Mildew of Wheat, in vivo whole plant, 24 Hour Protectant; conditions: Erysiphe, control of fungal infection vs untreated plants, read-out: ERYSGT in vivo 1 Day Protectant
[2] = system: Septoria tritici—SEPTTR; experiment: Leaf Blotch of Wheat, in vivo whole plant, 24 Hour Protectant; conditions: Zymoseptoria tritici, 24 h, control of fungal infection vs untreated plants, read-out: SEPTTR in vivo 1 Day Protectant
[3] = system: Ustilago maydis (USTIMA); experiment: microbe, parasite or virus in culture; type: cell-based; conditions: Mycosarcoma maydis, read-out: USTIMA in vitro Growth Inhibition
[4] = system: Magnaporthe grisea (Pyricularia oryzae—PYRIOR); experiment: microbe, parasite or virus in culture; type: cell-based; conditions: Pyricularia oryzae, read-out: PYRIOR in vitro Growth Inhibition
[5] = system: Phytophthora infestans—PHYTIN; experiment: whole plant or invertebrate; type: in vivo; conditions: Phytophthora, in Solanum lycopersicum, 24 h, read-out: PHYTIN in vivo 1 Day Protectant
[6] = system: Mycosphaerella graminicola (Septoria tritici—SEPTTR); experiment: In vitro fungal growth inhibition, Mycosphaerella graminicola (SEPTTR); type: cell-based; conditions: Zymoseptoria tritici, read-out: SEPTTR in vitro Growth Inhibition
[7] = system: Stagonospora nodorum (Leptosphaeria nodorum—LEPTNO); experiment: In vitro fungal growth inhibition, Stagonospora nodorum (LEPTNO); type: cell-based; conditions: Leptosphaeria, read-out: LEPTNO in vitro Growth Inhibition
[8] = system: Phytophthora infestans (PHYTIN); experiment: microbe, parasite or virus in culture; type: cell-based; conditions: Phytophthora infestans, read-out: PHYTIN in vitro Growth Inhibition
[9] = system: Puccinia recondita—PUCCRT; experiment: Brown Rust of Wheat, in vivo whole plant, 24 Hour Protectant; conditions: Puccinia, control of fungal infection vs untreated plants, read-out: PUCCRT in vivo 1 Day Protectant
[10] = system: Rhizoctonia solani (RHIZSO); experiment: microbe, parasite or virus in culture; type: cell-based; conditions: Rhizoctonia solani, read-out: RHIZSO in vitro Growth Inhibition
[11] = system: Leptosphaeria nodorum—LEPTNO; experiment: Glume Blotch of Wheat, in vivo whole plant, 24 Hour Protectant; conditions: control of fungal infection vs untreated plants; for pest or weed control at 100 ppm: Leptosphaeria, read-out: LEPTNO in vivo 1 Day Protectant
[12] = wheat plants sprayed at 100 ppm, inoculated after 24 hours
[13] = 100 ppm spray, wheat, 24 hour protectant
[14] = 100 ppm spray, 24 hour protectant, wheat

SMILES	melting point	pest or weed control at 100 ppm [1, 12]	pest or weed control at 100 ppm [2, 12]	inhibition at 25 ppm [3]	inhibition at 25 ppm [4]	pest or weed control at 100 ppm [5]	inhibition at 25 ppm ([6]; 25 ppm in the growth medium)	inhibition at 25 ppm ([7]; 25 ppm in the growth medium)	inhibition at 25 ppm [8]	pest or weed control at 100 ppm [9, 12]	inhibition at 25 ppm [10]	pest or weed control at 100 ppm [11, 12]	other results
CC1(C)CC(NC(=O)c2nnc(O)nc2O)CC(C)(C)C1 [Compound 543]	283 to 285 °C	< 25%	< 25%	< 80%	< 80%	< 25%	< 80%	< 80%	< 80%	< 25%	< 80%	25 to 74%	–
CSc1nnc(C(=O)NC2CC(C)(C)CC(C)(C)C2)c(O)n1 [Compound 545]	265 to 268 °C	< 25%	25 to 74%	< 80%	< 80%	25 to 74%	< 80%	< 80%	> 80%	25 to 74%	< 80%	25 to 74%	–
CSc1ccnc(C(=O)Nc2ccc(Oc3cccc(C(F)(F)F)c3)cc2)c1O [Compound 479]	129 to 132 °C	< 25%	25 to 74%	< 80%	< 80%	< 25%	< 80%	< 80%	< 80%	< 25%	< 80%	25 to 74%	–
O=C(NCC1CCCc2ccccc21)c1nc(Br)ccc1O (stereo not drawn) [Compound 485]	140 to 142 °C	< 25%	< 25%	< 80%	< 80%	< 25%	< 80%	< 80%	< 80%	< 25%	< 80%	< 25%	–
COc1ccnc(C(=O)Nc2ccc(Oc3cc(C(F)(F)F)cc(C(F)(F)F)n3)cc2)c1O [Compound 464]	179 to 181 °C	< 25%	25 to 74%	< 80%	< 80%	< 25%	< 80%	< 80%	< 80%	< 25%	< 80%	25 to 74%	–
COc1ccnc(C(=O)Nc2cccc(Sc3ccc(C(F)(F)F)cc3)c2)c1O [Compound 444]	133 to 134 °C	–	–	< 80%	< 80%	< 25%	–	–	< 80%	–	< 80%	–	pest or weed control at 100 ppm [1, 13]: < 25%; pest or weed control at 100 ppm [2, 13]: 25 to 74%; inhibition at 25 ppm ([6]; 25 ppm in growth medium): < 80%; inhibition at 25 ppm ([7]; 25 ppm in growth medium): < 80%; pest or weed control at 100 ppm [9, 13]: 25 to 74%; pest or weed control at 100 ppm [11, 13]: 25 to 74%
COc1ccnc(C(=O)N[C@H]2C(O)[C@@H]3CC[C@H]2[C@@H]2CCCC[C@@H]23)c1O (stereo partly drawn) [Compound 293]	143 to 160 °C (dec.)	–	–	< 80%	< 80%	< 25%	–	–	< 80%	–	< 80%	–	pest or weed control at 100 ppm [1, 14]: < 25%; pest or weed control at 100 ppm [2, 14]: 25 to 74%; inhibition at 25 ppm ([6]; 25 ppm in growth medium): < 80%; inhibition at 25 ppm ([7]; 25 ppm in growth medium): < 80%; pest or weed control at 100 ppm [9, 14]: < 25%; pest or weed control at 100 ppm [11, 14]: 25 to 74%
COc1cccc(CNC(=O)c2cccnc2O)c1OC [Compound 516]	193 to 194 °C	< 25%	< 25%	< 80%	< 80%	< 25%	< 80%	< 80%	< 80%	< 25%	< 80%	< 25%	–
O=C(NC1CCCCC1)c1cccnc1O [Compound 515]	190 to 192 °C	< 25%	25 to 74%	< 80%	< 80%	< 25%	< 80%	< 80%	< 80%	< 25%	< 80%	< 25%	–
CC1(C)CC(NC(=O)c2cc(O)cnc2O)CC(C)(C)C1 [Compound 526]	320 to 327 °C	< 25%	25 to 74%	< 80%	< 80%	< 25%	< 80%	< 80%	< 80%	< 25%	< 80%	25 to 74%	–
COc1ccnc(C(=O)N[C@H]2CC[C@H](Oc3ccc(C(F)(F)F)cc3)CC2)c1O [Compound 270]	168 to 172 °C (dec.)	–	–	> 80%	> 80%	25 to 74%	–	–	< 80%	–	> 80%	–	pest or weed control at 100 ppm [1, 14]: 25 to 74%; pest or weed control at 100 ppm [2, 14]: 25 to 74%; inhibition at 25 ppm ([6]; 25 ppm in growth medium): > 80%; inhibition at 25 ppm ([7]; 25 ppm in growth medium): > 80%; pest or weed control at 100 ppm [9, 14]: 25 to 74%; LEPTNO in vivo 1 Day Protectant [11, 14]: + +
